The structures appear in SMILES notation. ≈ marks a conversion by molar mass, not a printed value. Where two headings read alike, the source gives them in different places.

In test [1] the target is T1, BChE from equine serum (eqBuChE) (Equus caballus, UniProt P81908).
T1 construct: BChE from equine serum (BChE, EC 3.1.1.8); purchased Sigma-Aldrich (St. Louis, MO, USA); host or cells: equine serum
Kind of test: biochemical. The conditions noted are these: for IC50 / inhibition at 20 µM: average ± standard error (n = 3); for inhibition at 20 µM: read-out: BChE % of Inhibition (Conc. 20 μM), 20 μM. The protocol: The in vitro cholinesterase inhibitory activity of the synthesized hybrid molecules was evaluated using a modified Ellman’s assay, optimized for 96-well microplate application. AChE from Electrophorus electricus (AChE, EC 3.1.1.7), BChE from equine serum (BChE, EC 3.1.1.8), acetylthiocholine iodide (ATCh), butyrylthiocholine iodide (BTCh), and 5,5′-dithiobis(2-nitrobenzoic acid) were purchased from Sigma-Aldrich (St. Louis, MO, USA) and used without further purification.
Test compounds were initially dissolved in dimethylsulphoxide (DMSO) to yield 1 mM stock solutions and subsequently diluted with 0.1 M phosphate buffer (pH 8.0) to prepare working solutions.
For the assay, 20 µL of compound solution was added to 140 µL of 0.1 M phosphate buffer (pH 8.0) in each well, followed by 20 µL of enzyme solution (AChE or BuChE, 100 U/L). After incubation at room temperature for 10 min, the reaction was initiated by adding 10 µL of DTNB (0.01 M) and 10 µL of substrate (ATCh or BTCh, 0.015 M). […] The percentage inhibition of enzyme activity was calculated using the following equation:(1) % Inhibition=Absorbance of control−Apsorbance of sample/Absorbance of control×100 where the absorbance of the control represents the maximum enzyme activity (without inhibition), and the absorbance of the sample corresponds to the enzyme activity in the presence of the tested compound. Appropriate blanks were included to account for background absorbance and to correct for any intrinsic color of the tested compounds.
All experiments were performed in triplicate.

The subject of test [2] is Staphylococcus epidermidis ATCC 12228. The experiment in a line: Agar well diffusion, S. epidermidis. The conditions noted are these: ATCC12228, read-out: Staphylococcus epidermidis ATCC 12228 ZOI, 60 µL of 1 mg/mL per well, ZOI including the well (6 mm), ± SD, n = 3, ciprofloxacin disk 5 μg. It counts as cell-based. The protocol: (§1) The antimicrobial potential of the synthesized coumarin–triazole–isatin hybrids was evaluated by the agar well diffusion method. The activity was tested against a variety of Gram-positive bacteria (Staphylococcus aureus ATCC 25923 and ATCC 902710, Staphylococcus epidermidis ATCC 12228, Streptococcus pyogenes ATCC 19615, Enterococcus faecalis ATCC 51299), Gram-negative bacteria (Escherichia coli ATCC 25922, Haemophilus influenzae ATCC 49766, Pseudomonas aeruginosa ATCC 27853, Salmonella typhi ATCC 14028, Neisseria meningitidis ATCC 13090, Neisseria gonorrhoeae ATCC 43069), and fungi (Candida albicans ATCC 60193 and ATCC 90028, Candida orientalis ATCC 6258). All microbial strains were obtained from Microbiologics (St.Cloud, MN, USA).
(§2) The test compounds were dissolved in DMSO to obtain stock solutions (1 mg/mL). Each compound (60 µL) was transferred into wells (6 mm in diameter) that were previously perforated into agar plates inoculated with microbial suspensions standardized to 0.5 McFarland for bacteria and 2 McFarland for Candida spp. DMSO was used as a negative control, while commercial antibiotic disks of novobiocin (5 μg), ampicillin (10 μg), and ciprofloxacin (5 μg) served as positive controls. Antimicrobial activity was assessed by measuring the diameter of zones of inhibition (ZOIs) in millimeters. All tests were conducted in triplicate.

In test [3] the test system is Staphylococcus aureus ATCC 25923. Kind of test: Agar well diffusion, S. aureus. It counts as cell-based. Conditions: for Antibacterial activity in words: agar well diffusion, particularly S. aureus; for zone of inhibition at 1000 µg/mL: Staphylococcus aureus. As to the method: as §1, §2
Test [4] addresses T2, AChE from Electrophorus electricus (eeAChE) (Electrophorus electricus, UniProt O42275).
T2 construct: purchased Sigma-Aldrich (St. Louis, MO, USA)
Kind of test: biochemical. Conditions: for inhibition at 20 µM: read-out: AChE % of Inhibition (Conc. 20 μM).

The next test deals with S. aureus ATCC 25923. The experiment in a line: MIC by agar dilution, S. aureus. It counts as cell-based. Conditions: Staphylococcus aureus, ATCC25923, 0.39–200 μg/mL, read-out: MIC against S. aureus.
Test [5] has as its system S. epidermidis ATCC 12228. Kind of test: MIC by agar dilution, S. epidermidis. The class given is cell-based. Conditions: Staphylococcus epidermidis, ATCC12228, 0.39–200 μg/mL, read-out: MIC against S. epidermidis.
The target in another test is T3, BChE (Equus caballus, UniProt P81908).
T3 construct: BChE from equine serum (BChE, EC 3.1.1.8); purchased Sigma-Aldrich (St. Louis, MO, USA); host or cells: equine serum
The experiment in a line: Type of enzyme inhibition, Lineweaver–Burk plot. The class given is biochemical, equine. The protocol:
The concentrations of substrate and inhibitor used in the assay are given in Section 3.3.1.
The type of enzyme inhibition was assessed using Lineweaver–Burk plots, which represent a linear transformation of the Michaelis–Menten equation. This method enables visual classification of inhibition type by plotting the reciprocal of the initial reaction velocity (1/Vo) against the reciprocal of the substrate concentration (1/[S]).
The intersection pattern of the fitted lines was used to identify the inhibition mechanism. All tests were replicated three times.

The mark [6] stands for this setting: ATCC25923, 60 µL of 1 mg/mL per well, ZOI including the well (6 mm), ± SD, n = 3, ciprofloxacin disk 5 μg, read-out: Staphylococcus aureus ATCC 25923 ZOI.

T3 sequence (P81908 whole entry): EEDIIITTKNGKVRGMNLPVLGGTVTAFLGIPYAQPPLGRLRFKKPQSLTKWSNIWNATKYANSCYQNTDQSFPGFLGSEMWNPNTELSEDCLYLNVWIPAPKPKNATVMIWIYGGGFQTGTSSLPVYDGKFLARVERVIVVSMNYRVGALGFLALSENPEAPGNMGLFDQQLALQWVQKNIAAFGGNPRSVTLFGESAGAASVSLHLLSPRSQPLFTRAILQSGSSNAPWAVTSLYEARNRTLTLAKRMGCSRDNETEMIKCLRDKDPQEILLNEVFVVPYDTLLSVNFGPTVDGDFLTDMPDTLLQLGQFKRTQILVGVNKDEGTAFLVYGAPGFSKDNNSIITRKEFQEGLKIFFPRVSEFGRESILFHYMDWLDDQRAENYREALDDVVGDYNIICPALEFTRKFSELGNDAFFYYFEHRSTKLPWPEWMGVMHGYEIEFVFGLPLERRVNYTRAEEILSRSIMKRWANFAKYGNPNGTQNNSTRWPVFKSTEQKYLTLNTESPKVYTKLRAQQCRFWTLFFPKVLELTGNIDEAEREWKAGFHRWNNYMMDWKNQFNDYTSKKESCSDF
T1 sequence (P81908 whole entry): as above
T2 sequence (O42275 24-633): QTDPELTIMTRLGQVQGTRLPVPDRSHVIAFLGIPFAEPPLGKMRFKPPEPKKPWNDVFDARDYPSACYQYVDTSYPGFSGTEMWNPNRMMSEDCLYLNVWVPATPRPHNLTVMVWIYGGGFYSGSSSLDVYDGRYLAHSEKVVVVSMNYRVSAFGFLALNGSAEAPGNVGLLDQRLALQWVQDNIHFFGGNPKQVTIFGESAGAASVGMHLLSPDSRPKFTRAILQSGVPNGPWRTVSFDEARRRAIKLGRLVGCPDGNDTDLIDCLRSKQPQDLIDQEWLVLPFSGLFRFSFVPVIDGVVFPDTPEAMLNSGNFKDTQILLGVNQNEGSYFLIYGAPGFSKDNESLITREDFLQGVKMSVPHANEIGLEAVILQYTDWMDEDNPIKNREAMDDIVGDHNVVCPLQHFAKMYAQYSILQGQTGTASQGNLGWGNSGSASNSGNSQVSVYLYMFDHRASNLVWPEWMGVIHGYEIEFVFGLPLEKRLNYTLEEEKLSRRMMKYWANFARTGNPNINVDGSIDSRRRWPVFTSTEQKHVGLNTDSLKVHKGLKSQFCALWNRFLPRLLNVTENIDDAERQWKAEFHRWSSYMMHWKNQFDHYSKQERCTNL

For the compound `O=C1C(=O)N(Cc2cn(CCOc3cc(=O)oc4ccccc34)nn2)c2ccc(F)cc21` [Compound 6a2, 5-fluoro-1-((1-(2-((2-oxo-2H-chromen-4-yl)oxy)ethyl)-1H-1,2,3-triazol-4-yl)methyl)indoline-2,3-dione], in test [1], the IC50 worked out at 9.16 ± 1.69 µM and the inhibition at 20 µM was determined as 66.2 ± 5.18%. The zone of inhibition at 1000 µg/mL in test [2] stood at 9.16 ± 1.69 mm. The “Antibacterial activity in words” value in test [3] is given as “failed to exhibit significant activity”. Also, the inhibition at 20 µM in test [4] worked out at 11.8 ± 1.18%.

Regarding `O=C1C(=O)N(Cc2cn(CCOc3cc(=O)oc4ccccc34)nn2)c2ccccc21` [Compound 6a1, 1-((1-(2-((2-oxo-2H-chromen-4-yl)oxy)ethyl)-1H-1,2,3-triazol-4-yl)methyl)indoline-2,3-dione], in test [1], the IC50 was found to be 6.08 ± 1.19 µM and the inhibition at 20 µM stood at 72.8 ± 2.17%. In test [2], the zone of inhibition at 1000 µg/mL was found to be 6.08 ± 1.19 mm. Also, the “Antibacterial activity in words” value in test [3] was “failed to exhibit significant activity”. Besides, in test [4], the inhibition at 20 µM turned out to be 29.3 ± 2.14%.

Regarding `O=C1C(=O)N(Cc2cn(CCCOc3cc(=O)oc4ccccc34)nn2)c2ccc(Br)cc21` [Compound 6b4, 5-bromo-1-((1-(3-((2-oxo-2H-chromen-4-yl)oxy)propyl)-1H-1,2,3-triazol-4-yl)methyl)indoline-2,3-dione], the minimal inhibitory concentration (MIC) in the test on S. aureus ATCC 25923 was found to be 6.25 µg/mL (≈ 12.3 µM); in test [5], 25 µg/mL (≈ 49.1 µM). In test [1], this compound registered an IC50 of 13.3 ± 2.19 µM. The inhibition at 20 µM in test [1] stood at 66.2 ± 8.11%; in test [4], 22.9 ± 2.11%. In addition, the zone of inhibition at 1000 µg/mL in test [2] was found to be 14 mm; in test [3] (ATCC25923, read-out: Staphylococcus aureus ATCC 25923 ZOI, 60 µL of 1 mg/mL per well, ZOI including the well (6 mm), ± SD, n = 3, ciprofloxacin disk 5 μg), 20 mm. In addition, the “Antibacterial activity in words” value in test [3] was “moderate antibacterial effects”.

Take `O=C1C(=O)N(Cc2cn(CCCCOc3cc(=O)oc4ccccc34)nn2)c2ccccc21` [Compound 6c1, 1-((1-(4-((2-oxo-2H-chromen-4-yl)oxy)butyl)-1H-1,2,3-triazol-4-yl)methyl)indoline-2,3-dione]: the IC50 in test [1] came out at 1.74 ± 0.29 µM; in test [4] (average ± standard error (n = 3)), 15.3 ± 1.22 µM. Moreover, the “Selectivity BChE/AChE” value in test [1] (ratio of AChE and BChE IC50) came to 8.78. In addition, the inhibition at 20 µM was determined as 84.5 ± 8.46% in test [1] and 67.1 ± 3.27% in test [4]. For the same compound, at BChE (from Lineweaver–Burk plot), the “α value (affinity constant)” value is on record as “greater than 1”. For the same compound, on BChE (substrate 1–8 mM, inhibitor 4, 8, 12 μM), the Type of inhibition entry is recorded as “mixed-type inhibition”. The zone of inhibition at 1000 µg/mL in test [2] worked out at 1.74 ± 0.29 mm; in test [3] (setting [6]), 8.67 ± 1.15 mm. The “Antibacterial activity in words” value in test [3] is recorded as “only weak antibacterial activity”.

`O=C1C(=O)N(Cc2cn(CCOc3cc(=O)oc4ccccc34)nn2)c2ccc(Br)cc21` [Compound 6a4, 5-bromo-1-((1-(2-((2-oxo-2H-chromen-4-yl)oxy)ethyl)-1H-1,2,3-triazol-4-yl)methyl)indoline-2,3-dione]: in the test on S. aureus ATCC 25923, the MIC was determined as 12.5 µg/mL (≈ 25.2 µM). Moreover, the inhibition at 20 µM is 22.7 ± 3.87% in test [1] and 4.57 ± 0.87% in test [4]. In addition, the zone of inhibition at 1000 µg/mL in test [3] (setting [6]) is 12 to 20 mm. Also, the “Antibacterial activity in words” value in test [3] is “showed activity”.

Consider `O=C1C(=O)N(Cc2cn(CCCOc3cc(=O)oc4ccccc34)nn2)c2ccc(I)cc21` [Compound 6b5, 5-iodo-1-((1-(3-((2-oxo-2H-chromen-4-yl)oxy)propyl)-1H-1,2,3-triazol-4-yl)methyl)indoline-2,3-dione], for which, in test [1], the IC50 amounted to 14.8 ± 1.44 µM. Besides, the inhibition at 20 µM is 61.6 ± 7.49% in test [1] and 27.6 ± 1.49% in test [4]. Further, the zone of inhibition at 1000 µg/mL in test [2] came to 14.8 ± 1.44 mm. The “Antibacterial activity in words” value in test [3] was “largely inactive”.

`O=C(O)c1cn(C2CC2)c2cc(N3CCNCC3)c(F)cc2c1=O` [Ciprofloxacine, ciprofloxacin, reference compound]: the MIC (in the test on S. aureus ATCC 25923; in test [5]) was 0.78 µg/mL (≈ 2.35 µM) in each case. Further, the values for the zone of inhibition at 1000 µg/mL in test [2] and in test [3] (setting [6]) were 5.24 ± 1.16 mm and 27 mm, respectively. For the same compound, the “Staphylococcus aureus ATCC 25923 ZOI” value in test [3] (60 µL of 1 mg/mL per well, ZOI including the well (6 mm), ± SD, n = 3, ciprofloxacin disk 5 μg) was determined as 27.00 ± 1.62 mm.

These data come from paper PMC12114297 (Molecules, 2025).
